What was measured:
MC-38 [1] = test: Antitumor activity against mouse MC38 cells implanted in C57BL/6J mouse assessed as reduction in tumor weight at 10 mg/kg, po BID administered for 3 to 4 weeks (reference value: 1.79 +/- 0.24 g); assay type: functional; conditions: time 3-4 weeks
MC-38 [2] = test: Synergistic antitumor activity against mouse MC38 cells implanted in C57BL/6J mouse assessed as reduction in tumor volume at 1 mg/kg, po bid administered for 3 to 4 weeks in presence of 5 mg/kg anti-PD1 and measured twice a week (reference value: 1549.22 +/- 217.92 mm3); assay type: functional; conditions: time 3-4 weeks
MC-38 [3] = test: Antitumor activity against mouse MC38 cells implanted in C57BL/6J mouse assessed as tumor growth inhibition at 1 mg/kg, po BID measured after 4 weeks; assay type: functional; conditions: MC-38, 672 h, read-out: TGI
MC-38 [4] = test: Synergistic antitumor activity against mouse MC38 cells implanted in C57BL/6J mouse assessed as reduction in tumor weight at 10 mg/kg, po bid administered for 3 to 4 weeks in presence of 5 mg/kg anti-PD1 and measured twice a week (reference value: 1.79 +/- 0.24 g); assay type: functional; conditions: time 3-4 weeks
MC-38 [5] = test: Synergistic antitumor activity against mouse MC38 cells implanted in C57BL/6J mouse assessed as tumor growth inhibition at 1 mg/kg, po bid measured after 4 weeks in presence of 5 mg/kg anti-PD1 and measured twice a week; assay type: functional; conditions: MC-38, 672 h, read-out: TGI
MC-38 [6] = test: Synergistic antitumor activity against mouse MC38 cells implanted in C57BL/6J mouse assessed as tumor growth inhibition at 10 mg/kg, po bid measured after 4 weeks in presence of 5 mg/kg anti-PD1 and measured twice a week; assay type: functional; conditions: MC-38, 672 h, read-out: TGI
MC-38 [7] = test: Antitumor activity against mouse MC38 cells implanted in C57BL/6J mouse assessed as reduction in tumor weight at 1 mg/kg, po BID administered for 3 to 4 weeks (reference value: 1.79 +/- 0.24 g); assay type: functional; conditions: time 3-4 weeks
MC-38 [8] = test: Antitumor activity against mouse MC38 cells implanted in C57BL/6J mouse assessed as tumor weight inhibition rate at 1 mg/kg, po BID measured after 4 weeks; assay type: functional; set-up: scale not given: the % may be the effect or the level left
MC-38 [9] = test: Antitumor activity against mouse MC38 cells implanted in C57BL/6J mouse assessed as tumor weight inhibition rate at 10 mg/kg, po BID measured after 4 weeks; assay type: functional; set-up: scale not given: the % may be the effect or the level left
MC-38 [10] = test: Synergistic antitumor activity against mouse MC38 cells implanted in C57BL/6J mouse assessed as tumor weight inhibition rate at 1 mg/kg, po bid measured after 4 weeks in presence of 5 mg/kg anti-PD1 and measured twice a week; assay type: functional; set-up: scale not given: the % may be the effect or the level left
MC-38 [11] = test: Synergistic antitumor activity against mouse MC38 cells implanted in C57BL/6J mouse assessed as reduction in tumor weight at 1 mg/kg, po bid administered for 3 to 4 weeks in presence of 5 mg/kg anti-PD1 and measured twice a week (reference value: 1.79 +/- 0.24 g); assay type: functional; conditions: time 3-4 weeks
MC-38 [12] = test: Antitumor activity against mouse MC38 cells implanted in C57BL/6J mouse assessed as tumor growth inhibition at 10 mg/kg, po BID measured after 4 weeks; assay type: functional; conditions: MC-38, 672 h, read-out: TGI
MC-38 [13] = test: Antitumor activity against mouse MC38 cells implanted in C57BL/6J mouse assessed as reduction in tumor volume at 1 mg/kg, po BID administered for 3 to 4 weeks (reference value: 1549.22 +/- 217.92 mm3); assay type: functional; conditions: time 3-4 weeks
MC-38 [14] = test: Synergistic antitumor activity against mouse MC38 cells implanted in C57BL/6J mouse assessed as tumor weight inhibition rate at 10 mg/kg, po bid measured after 4 weeks in presence of 5 mg/kg anti-PD1 and measured twice a week; assay type: functional; set-up: scale not given: the % may be the effect or the level left
MC-38 [15] = test: Synergistic antitumor activity against mouse MC38 cells implanted in C57BL/6J mouse assessed as reduction in tumor volume at 10 mg/kg, po bid administered for 3 to 4 weeks in presence of 5 mg/kg anti-PD1 and measured twice a week (reference value: 1549.22 +/- 217.92 mm3); assay type: functional; conditions: time 3-4 weeks
MC-38 [16] = test: Antitumor activity against mouse MC38 cells implanted in C57BL/6J mouse assessed as reduction in tumor volume at 10 mg/kg, po BID administered for 3 to 4 weeks (reference value: 1549.22 +/- 217.92 mm3); assay type: functional; conditions: time 3-4 weeks
[17] = target: Protein cereblon/Mitogen-activated protein kinase kinase kinase kinase 1 (Homo sapiens, UniProt Q92918+Q96SW2); test: PROTAC activity at CRBN/HPK1 in human Jurkat cells incubated for 24 hrs by Western blotting analysis; assay type: cell-based
Protein cereblon/Mitogen-activated protein kinase kinase kinase kinase 1, sequence (Q92918 whole entry): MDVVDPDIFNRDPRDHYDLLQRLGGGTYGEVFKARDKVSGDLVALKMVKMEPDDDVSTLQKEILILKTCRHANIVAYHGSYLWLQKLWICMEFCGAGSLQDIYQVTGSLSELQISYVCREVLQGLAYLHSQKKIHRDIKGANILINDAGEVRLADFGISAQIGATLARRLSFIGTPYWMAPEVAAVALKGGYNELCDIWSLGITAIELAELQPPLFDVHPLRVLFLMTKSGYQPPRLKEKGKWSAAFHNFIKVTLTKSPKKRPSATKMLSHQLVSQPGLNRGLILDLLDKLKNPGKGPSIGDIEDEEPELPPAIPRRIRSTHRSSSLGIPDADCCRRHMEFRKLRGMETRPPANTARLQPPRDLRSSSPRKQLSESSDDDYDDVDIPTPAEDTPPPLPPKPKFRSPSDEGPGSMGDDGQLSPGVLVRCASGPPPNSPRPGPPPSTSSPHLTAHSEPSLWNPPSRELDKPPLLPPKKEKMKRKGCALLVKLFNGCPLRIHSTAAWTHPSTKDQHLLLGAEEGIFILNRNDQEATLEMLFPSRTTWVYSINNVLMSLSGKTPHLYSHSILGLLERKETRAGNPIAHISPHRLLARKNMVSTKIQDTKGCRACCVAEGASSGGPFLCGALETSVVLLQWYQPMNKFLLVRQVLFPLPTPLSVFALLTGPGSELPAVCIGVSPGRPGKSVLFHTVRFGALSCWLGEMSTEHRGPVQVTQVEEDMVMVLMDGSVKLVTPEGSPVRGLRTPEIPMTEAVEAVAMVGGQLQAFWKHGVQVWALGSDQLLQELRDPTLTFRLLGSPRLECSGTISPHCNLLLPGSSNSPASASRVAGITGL
Protein cereblon/Mitogen-activated protein kinase kinase kinase kinase 1, sequence (Q96SW2 whole entry): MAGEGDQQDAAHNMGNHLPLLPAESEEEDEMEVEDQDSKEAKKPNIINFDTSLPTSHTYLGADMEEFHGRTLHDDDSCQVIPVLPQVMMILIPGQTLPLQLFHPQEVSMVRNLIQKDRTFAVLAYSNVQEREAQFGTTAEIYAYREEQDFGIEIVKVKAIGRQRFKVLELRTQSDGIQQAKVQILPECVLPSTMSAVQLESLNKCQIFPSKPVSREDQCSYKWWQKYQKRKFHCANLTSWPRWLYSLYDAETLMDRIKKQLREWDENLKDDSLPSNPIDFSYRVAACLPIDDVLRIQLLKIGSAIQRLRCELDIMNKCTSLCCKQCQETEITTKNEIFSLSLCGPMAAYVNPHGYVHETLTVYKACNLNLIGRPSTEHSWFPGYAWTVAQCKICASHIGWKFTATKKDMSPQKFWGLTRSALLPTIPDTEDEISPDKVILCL

[18] = target: Mitogen-activated protein kinase kinase kinase kinase 1 (Homo sapiens, UniProt Q92918); test: Induction of HPK1 (unknown origin) degradation
Mitogen-activated protein kinase kinase kinase kinase 1, sequence (Q92918 whole entry): as the sequence (Q92918 whole entry) above

| DC50 [17] [nM] | DC50 [18] [nM] | Structure (SMILES) | Activity (MC-38 [1]) [g] | Activity (MC-38 [2]) [mm3] | inhibition in vivo at 1 mg/kg (MC-38 [3]) [%] | Activity (MC-38 [4]) [g] | inhibition in vivo at 1 mg/kg (MC-38 [5]) [%] | inhibition in vivo at 10 mg/kg (MC-38 [6]) [%] | Activity (MC-38 [7]) [g] | Activity (MC-38 [8]) [%] | Activity (MC-38 [9]) [%] | Activity (MC-38 [10]) [%] | Activity (MC-38 [11]) [g] | inhibition in vivo at 10 mg/kg (MC-38 [12]) [%] | Activity (MC-38 [13]) [mm3] | Activity (MC-38 [14]) [%] | Activity (MC-38 [15]) [mm3] | Activity (MC-38 [16]) [mm3] |
| --- | --- | --- | --- | --- | --- | --- | --- | --- | --- | --- | --- | --- | --- | --- | --- | --- | --- | --- |
|  |  | CCC(CC)n1cc(Oc2nc(-c3cc(C)c(C(=O)NCCN4CC[C@@H](F)C4)c(C)c3)cnc2N)cn1 | 2.27 | 367.21 | 12.9 | 0.57 | 76.3 | 72.6 | 2.04 | -13.75 | -26.45 | 73.27 | 0.48 | -22.4 | 1349.36 | 68.3 | 423.84 | 1896.55 |
| 21.4 | 1.8 | CN1CCC(n2cc(-c3c[nH]c4ncc(-c5ccc(N6CCC(CC7CCN(C(=O)c8ccc(Cl)c(N9CCC(=O)NC9=O)c8)CC7)CC6)nc5)nc34)cn2)CC1 |  |  |  |  |  |  |  |  |  |  |  |  |  |  |  |  |

— ChEMBL document CHEMBL6092203, “Discovery of Novel PROTAC-Based HPK1 Degraders with High Potency and Selectivity for Cancer Immunotherapy” (J Med Chem, 2024)
